This is an account of results in patent publication US20240269139A1, “COMPOUNDS FOR TARGETED PROTEIN DEGRADATION OF KINASES” (DANA-FARBER CANCER INSTITUTE, INC., priority 2020, published 2024).

Read-outs that look alike come from different tables or passages of the source.

What all share (assay type): cell-based
The target of test [1] is protein kinases (human kinome) (Homo sapiens, UniProt P51812). The settings on record: RPS6KA3 (P51812), experiment wp076.
The target of test [2] is protein kinases (human kinome) (Homo sapiens, UniProt Q9BYT3). The settings on record: STK33 (Q9BYT3-1), experiment wp076.
Test [3] has as its system protein kinases (human kinome). The settings on record: experiment wp076.
The target of test [4] is protein kinases (human kinome) (Homo sapiens, UniProt P30291). To be noted: experiment wp076.
For test [5], the target named is T1, protein kinases (human kinome) (Homo sapiens, UniProt O60285).
T1 sequence (O60285 1-661): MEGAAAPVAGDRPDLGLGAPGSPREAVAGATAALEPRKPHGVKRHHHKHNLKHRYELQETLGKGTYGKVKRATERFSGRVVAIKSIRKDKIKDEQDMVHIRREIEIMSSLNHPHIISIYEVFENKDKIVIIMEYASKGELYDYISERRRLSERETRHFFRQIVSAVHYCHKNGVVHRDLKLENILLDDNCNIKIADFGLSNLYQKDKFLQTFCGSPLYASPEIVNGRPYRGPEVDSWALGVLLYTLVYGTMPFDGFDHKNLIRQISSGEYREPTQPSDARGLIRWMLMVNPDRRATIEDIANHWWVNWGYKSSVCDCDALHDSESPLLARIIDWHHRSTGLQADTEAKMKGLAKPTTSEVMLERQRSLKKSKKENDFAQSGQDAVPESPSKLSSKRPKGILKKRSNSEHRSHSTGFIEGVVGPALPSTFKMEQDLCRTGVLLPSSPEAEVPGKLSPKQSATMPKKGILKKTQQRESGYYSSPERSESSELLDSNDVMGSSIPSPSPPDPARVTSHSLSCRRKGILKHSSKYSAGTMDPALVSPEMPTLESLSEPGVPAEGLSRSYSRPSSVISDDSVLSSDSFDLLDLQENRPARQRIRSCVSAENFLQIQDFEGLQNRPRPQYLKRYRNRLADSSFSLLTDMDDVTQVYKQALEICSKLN
To be noted: NUAK1 (O60285), experiment wp076.

The target in test [6] is protein kinases (human kinome) (Homo sapiens, UniProt Q14289).
The target in test [7] is T2, protein kinases (human kinome) (Homo sapiens, UniProt O14965).
T2 sequence (O14965 1-403): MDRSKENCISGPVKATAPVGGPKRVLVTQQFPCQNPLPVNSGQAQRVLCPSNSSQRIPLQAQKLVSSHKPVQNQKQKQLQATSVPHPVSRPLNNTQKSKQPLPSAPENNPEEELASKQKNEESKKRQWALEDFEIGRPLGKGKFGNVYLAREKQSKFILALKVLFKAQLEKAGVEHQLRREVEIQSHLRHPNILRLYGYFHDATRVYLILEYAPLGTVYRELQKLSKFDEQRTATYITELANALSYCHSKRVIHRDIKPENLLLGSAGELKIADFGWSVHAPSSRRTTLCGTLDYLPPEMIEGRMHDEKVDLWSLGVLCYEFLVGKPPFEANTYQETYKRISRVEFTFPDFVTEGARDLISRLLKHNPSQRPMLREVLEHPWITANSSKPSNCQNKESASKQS
To be noted: experiment wp076.

Test [8] deals with T3, protein kinases (human kinome) (Homo sapiens, UniProt P52789).
T3 sequence (P52789 1-917): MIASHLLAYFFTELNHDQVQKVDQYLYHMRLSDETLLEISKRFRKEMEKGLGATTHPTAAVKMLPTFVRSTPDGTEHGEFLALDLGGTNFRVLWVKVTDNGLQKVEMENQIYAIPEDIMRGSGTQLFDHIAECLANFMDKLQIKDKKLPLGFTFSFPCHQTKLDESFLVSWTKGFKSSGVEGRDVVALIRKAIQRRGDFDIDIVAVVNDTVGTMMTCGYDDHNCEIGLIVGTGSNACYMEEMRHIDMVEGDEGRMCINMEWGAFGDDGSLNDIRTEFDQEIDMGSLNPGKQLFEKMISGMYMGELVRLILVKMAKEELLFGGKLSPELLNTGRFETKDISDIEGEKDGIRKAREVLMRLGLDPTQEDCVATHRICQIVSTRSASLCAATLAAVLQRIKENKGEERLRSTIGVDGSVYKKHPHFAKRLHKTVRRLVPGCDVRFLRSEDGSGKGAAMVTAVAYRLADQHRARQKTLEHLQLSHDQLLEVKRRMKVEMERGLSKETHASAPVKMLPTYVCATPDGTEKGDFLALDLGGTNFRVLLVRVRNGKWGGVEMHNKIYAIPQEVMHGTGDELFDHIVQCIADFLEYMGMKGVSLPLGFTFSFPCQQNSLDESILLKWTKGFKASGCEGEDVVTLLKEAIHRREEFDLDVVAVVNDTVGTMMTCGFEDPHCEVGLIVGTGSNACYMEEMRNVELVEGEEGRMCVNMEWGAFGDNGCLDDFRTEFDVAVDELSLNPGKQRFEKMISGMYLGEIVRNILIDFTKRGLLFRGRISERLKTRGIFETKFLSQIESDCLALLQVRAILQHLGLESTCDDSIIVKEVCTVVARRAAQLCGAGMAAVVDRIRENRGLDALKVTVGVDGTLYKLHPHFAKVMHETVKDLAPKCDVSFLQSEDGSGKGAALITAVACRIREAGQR
The settings on record: HK2 (P52789); experiment wp076.

Sequence of protein kinases (human kinome) (Homo sapiens, UniProt Q14289) (Q14289 whole entry): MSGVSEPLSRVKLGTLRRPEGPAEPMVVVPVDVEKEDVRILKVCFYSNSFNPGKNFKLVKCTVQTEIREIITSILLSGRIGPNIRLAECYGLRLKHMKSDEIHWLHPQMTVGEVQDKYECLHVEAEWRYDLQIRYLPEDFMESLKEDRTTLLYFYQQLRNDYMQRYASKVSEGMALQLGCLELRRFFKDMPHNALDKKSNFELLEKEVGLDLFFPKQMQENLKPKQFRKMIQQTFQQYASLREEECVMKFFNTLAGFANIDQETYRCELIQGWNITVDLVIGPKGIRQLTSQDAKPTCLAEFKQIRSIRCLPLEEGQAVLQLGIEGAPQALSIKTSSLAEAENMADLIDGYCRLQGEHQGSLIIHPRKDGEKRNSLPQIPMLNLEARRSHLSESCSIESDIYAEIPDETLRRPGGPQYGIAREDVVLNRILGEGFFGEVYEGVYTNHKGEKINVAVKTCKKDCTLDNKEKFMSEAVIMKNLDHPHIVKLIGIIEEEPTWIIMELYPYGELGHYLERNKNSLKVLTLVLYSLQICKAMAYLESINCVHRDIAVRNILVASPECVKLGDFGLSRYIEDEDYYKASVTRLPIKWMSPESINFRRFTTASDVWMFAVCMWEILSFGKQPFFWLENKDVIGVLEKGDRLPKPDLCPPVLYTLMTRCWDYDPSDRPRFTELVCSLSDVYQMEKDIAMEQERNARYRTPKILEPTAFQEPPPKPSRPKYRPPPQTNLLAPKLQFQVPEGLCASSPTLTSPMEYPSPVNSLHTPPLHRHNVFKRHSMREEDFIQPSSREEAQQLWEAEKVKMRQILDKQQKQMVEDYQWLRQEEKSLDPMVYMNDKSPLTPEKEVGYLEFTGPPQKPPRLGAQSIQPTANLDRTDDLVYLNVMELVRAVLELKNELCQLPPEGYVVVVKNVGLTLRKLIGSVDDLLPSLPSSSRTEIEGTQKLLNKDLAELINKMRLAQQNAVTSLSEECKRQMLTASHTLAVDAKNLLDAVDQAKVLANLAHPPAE
Sequence of protein kinases (human kinome) (Homo sapiens, UniProt P51812) (P51812 whole entry): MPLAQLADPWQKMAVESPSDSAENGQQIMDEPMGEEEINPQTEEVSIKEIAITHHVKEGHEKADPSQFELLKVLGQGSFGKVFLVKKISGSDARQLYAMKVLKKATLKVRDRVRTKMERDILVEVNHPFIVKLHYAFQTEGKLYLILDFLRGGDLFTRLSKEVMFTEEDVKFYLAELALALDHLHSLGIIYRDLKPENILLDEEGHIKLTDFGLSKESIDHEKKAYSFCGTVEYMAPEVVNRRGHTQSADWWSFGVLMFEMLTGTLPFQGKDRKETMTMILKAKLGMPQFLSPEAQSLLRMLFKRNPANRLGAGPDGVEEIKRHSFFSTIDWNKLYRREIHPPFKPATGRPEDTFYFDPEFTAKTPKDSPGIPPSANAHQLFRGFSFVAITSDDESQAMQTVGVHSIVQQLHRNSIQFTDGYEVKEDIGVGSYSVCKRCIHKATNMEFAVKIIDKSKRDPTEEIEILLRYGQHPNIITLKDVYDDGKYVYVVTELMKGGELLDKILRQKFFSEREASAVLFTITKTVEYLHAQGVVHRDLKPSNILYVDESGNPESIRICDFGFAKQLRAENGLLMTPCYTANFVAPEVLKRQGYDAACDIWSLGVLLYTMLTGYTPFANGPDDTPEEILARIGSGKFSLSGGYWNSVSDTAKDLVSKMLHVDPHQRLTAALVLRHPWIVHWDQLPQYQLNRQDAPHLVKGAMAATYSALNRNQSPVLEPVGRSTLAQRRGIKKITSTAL
Sequence of protein kinases (human kinome) (Homo sapiens, UniProt P30291) (P30291 whole entry): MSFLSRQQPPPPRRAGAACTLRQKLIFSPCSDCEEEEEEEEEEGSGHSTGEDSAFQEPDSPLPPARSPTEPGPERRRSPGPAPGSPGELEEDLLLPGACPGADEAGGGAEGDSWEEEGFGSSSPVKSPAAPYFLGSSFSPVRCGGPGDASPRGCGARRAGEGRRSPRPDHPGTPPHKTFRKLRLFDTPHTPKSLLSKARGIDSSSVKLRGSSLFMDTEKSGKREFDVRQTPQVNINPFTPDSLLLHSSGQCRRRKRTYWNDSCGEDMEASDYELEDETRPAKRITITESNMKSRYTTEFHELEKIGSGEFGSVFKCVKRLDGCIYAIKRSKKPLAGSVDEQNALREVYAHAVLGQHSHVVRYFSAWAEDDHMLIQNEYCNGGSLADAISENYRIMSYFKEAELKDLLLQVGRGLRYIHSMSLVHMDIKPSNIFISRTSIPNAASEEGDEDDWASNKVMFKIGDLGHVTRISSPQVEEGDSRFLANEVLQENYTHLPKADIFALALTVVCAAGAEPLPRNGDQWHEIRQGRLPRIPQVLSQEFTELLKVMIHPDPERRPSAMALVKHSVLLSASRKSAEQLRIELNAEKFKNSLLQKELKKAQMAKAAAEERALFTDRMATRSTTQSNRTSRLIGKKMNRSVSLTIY
Sequence of protein kinases (human kinome) (Homo sapiens, UniProt Q9BYT3) (Q9BYT3 whole entry): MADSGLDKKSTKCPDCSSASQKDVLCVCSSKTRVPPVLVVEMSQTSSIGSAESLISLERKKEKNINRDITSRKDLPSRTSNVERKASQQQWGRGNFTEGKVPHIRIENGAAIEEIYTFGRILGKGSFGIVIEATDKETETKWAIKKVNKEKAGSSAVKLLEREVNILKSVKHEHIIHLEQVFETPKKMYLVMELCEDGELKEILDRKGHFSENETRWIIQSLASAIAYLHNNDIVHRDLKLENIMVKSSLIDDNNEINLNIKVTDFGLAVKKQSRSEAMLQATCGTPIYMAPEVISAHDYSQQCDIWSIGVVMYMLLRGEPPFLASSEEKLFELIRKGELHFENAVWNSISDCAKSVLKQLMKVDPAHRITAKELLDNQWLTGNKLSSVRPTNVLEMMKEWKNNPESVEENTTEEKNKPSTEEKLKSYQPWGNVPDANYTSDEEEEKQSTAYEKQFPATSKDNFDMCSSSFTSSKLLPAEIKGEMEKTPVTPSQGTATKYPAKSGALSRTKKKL

As to `CNC(=O)c1ccccc1Nc1cc(Nc2ccc(N3CCN(CCCCCCCCNc4cccc5c4C(=O)N(C4CCC(=O)NC4=O)C5=O)CC3)cc2OC)ncc1C(F)(F)F` (centres unmarked) [MFH.5.116.1], the logFC is reported as −0.369 in test [1]; −0.369 in test [1] (direction down); −1.382 in test [2]; −1.382 in test [2] (direction down); −0.7078 in test [5]; −0.7078 in test [5] (direction down). Further, the logFC in test [6] (PTK2B (Q14289-1) protein abundance, degrader vs DMSO, down) is −2.946; in test [8], −0.4347. Moreover, the “logFC RPS6KA1” value in test [3] (RPS6KA1 (Q15418-2)) is −0.5757. Further, in test [3], the “logFC RPS6KA1 (Q15418-2)” value is −0.5757. Also, the “logFC of WEE1” value in test [4] (WEE1 P30291-1, degrader vs DMSO) is listed as −0.4799. The “logFC WEE1 (P30291-1)” value in test [4] is on record as −0.4799. For the same compound, the “logFC PTK2B” value in test [6] (PTK2B, accession Q14289-1, experiment wp076, direction of change down) is recorded as −2.946. Further, the “logFC AURKA (O14965)” value in test [7] was −0.707.
